{"source": "BindingDB's records for patent US10695334", "about": "(Boehringer Ingelheim International, 2020)"}
{"biological_target": "Kallikrein-1 (Homo sapiens, UniProt P06870)", "sequence (P06870 whole entry)": "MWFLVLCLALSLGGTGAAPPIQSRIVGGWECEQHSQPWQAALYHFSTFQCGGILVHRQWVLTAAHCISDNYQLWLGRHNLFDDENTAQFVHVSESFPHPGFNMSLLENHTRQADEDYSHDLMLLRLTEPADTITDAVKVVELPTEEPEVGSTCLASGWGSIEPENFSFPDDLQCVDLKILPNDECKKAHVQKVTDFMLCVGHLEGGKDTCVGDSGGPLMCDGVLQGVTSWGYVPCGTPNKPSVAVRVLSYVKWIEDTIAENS", "assay": "Inhibition Assay", "experimental": "Prior to the assay, human TK1 (R&D Systems) was activated by incubation with human trypsin (Calbiochem) in a 1:10,000 ratio for 15 min at 37° C. For assaying TK1 inhibitory activity, activated TK1 (31.25 nM or 1 U/mL) was incubated at 24° C. with 0.1 mM fluorogenic substrate H-Pro-Phe-Arg-AMC (11295 from Bachem) and various concentrations of the test compound in assay buffer. Measurements were performed in a kinetic interval every 2nd minute for 16 min using a Spectramax M5 (Molecular Devices) with the following settings of the wavelength excitation of 350 nm and wavelength emission of 450 nm.", "units": {"IC50": "µM"}}
{"smiles": "Cc1nc(N2CC3C(C2)C3(F)F)ccc1Cn1cc(C(=O)N[C@@H]2CCc3c(C)n[nH]c32)c(C)n1", "note": "(stereo partly drawn) [US10695334, Example 18]", "IC50": "> 10"}
{"smiles": "Cc1nc(N2CC3(CC3)C2)ccc1Cn1cc(C(=O)N[C@@H]2CCc3c(C)n[nH]c32)cn1", "note": "[US10695334, Example 11]", "IC50": "> 10"}
{"smiles": "Cc1nc(N2CC3C(C2)C3(F)F)ncc1Cn1cc(C(=O)N[C@@H]2CCc3c2n[nH]c3C)cn1", "note": "(stereo partly drawn) [US10695334, Example 84]", "IC50": "> 10"}
